Measured values reported in article PMC6222422, “Synthesis and Biological Evaluation of Novel Indole-Derived Thioureas” (Molecules : A Journal of Synthetic Chemistry and Natural …, 2018).
≈ marks a conversion by molar mass, not a printed value.

Assays:
[1] = test system: S. aureus NCTC 4163; assay: MIC, twofold serial agar dilution; format: cell-based; conditions: Staphylococcus aureus, NCTC4163, 18 h, 35 °C, read-out: minimal inhibitory concentrations (MIC)
[2] = test system: S. aureus ATCC 25923; assay: MIC, twofold serial agar dilution; format: cell-based; conditions: Staphylococcus aureus, ATCC25923, 18 h, 35 °C, read-out: minimal inhibitory concentrations (MIC)
[3] = test system: S. aureus ATCC 6538; assay: MIC, twofold serial agar dilution; format: cell-based; conditions: Staphylococcus aureus, ATCC6538, 18 h, 35 °C, read-out: minimal inhibitory concentrations (MIC)
[4] = test system: S. aureus ATCC 29213; assay: MIC, twofold serial agar dilution; format: cell-based; conditions: Staphylococcus aureus, ATCC29213, 18 h, 35 °C, read-out: minimal inhibitory concentrations (MIC)
[5] = test system: S. epidermidis ATCC 12228; assay: MIC, twofold serial agar dilution; format: cell-based; conditions: Staphylococcus epidermidis, ATCC12228, 18 h, 35 °C, read-out: minimal inhibitory concentrations (MIC)
[6] = test system: B. subtilis ATCC 6633; assay: MIC, twofold serial agar dilution; format: cell-based; conditions: Bacillus subtilis, ATCC6633, 18 h, 35 °C, read-out: minimal inhibitory concentrations (MIC)
[7] = test system: B. cereus ATCC 11778; assay: MIC, twofold serial agar dilution; format: cell-based; conditions: Bacillus cereus, ATCC11778, 18 h, 35 °C, read-out: minimal inhibitory concentrations (MIC)
[8] = test system: M. luteus ATCC 10240; assay: MIC, twofold serial agar dilution; format: cell-based; conditions: Micrococcus luteus, ATCC10240, 18 h, 35 °C, read-out: minimal inhibitory concentrations (MIC)
[9] = test system: S. aureus NCTC 4163; assay: disc diffusion method; format: cell-based, Staphylococcus aureus; conditions: Staphylococcus aureus, NCTC4163, applied 400 µg per disc, dash = lack of the growth inhibition area, read-out: diameter of growth inhibitory zone (GIZ)
[10] = test system: S. aureus ATCC 25923; assay: disc diffusion method; format: cell-based, Staphylococcus aureus; conditions: Staphylococcus aureus, ATCC25923, applied 400 µg per disc, dash = lack of the growth inhibition area, read-out: diameter of growth inhibitory zone (GIZ)
[11] = test system: S. aureus ATCC 6538; assay: disc diffusion method; format: cell-based, Staphylococcus aureus; conditions: Staphylococcus aureus, ATCC6538, applied 400 µg per disc, dash = lack of the growth inhibition area, read-out: diameter of growth inhibitory zone (GIZ)
[12] = test system: S. aureus ATCC 29213; assay: disc diffusion method; format: cell-based, Staphylococcus aureus; conditions: Staphylococcus aureus, ATCC29213, applied 400 µg per disc, dash = lack of the growth inhibition area, read-out: diameter of growth inhibitory zone (GIZ)
[13] = test system: S. epidermidis ATCC 12228; assay: disc diffusion method; format: cell-based, Staphylococcus epidermidis; conditions: Staphylococcus epidermidis, ATCC12228, applied 400 µg per disc, dash = lack of the growth inhibition area, read-out: diameter of growth inhibitory zone (GIZ)
[14] = test system: B. subtilis ATCC 6633; assay: disc diffusion method; format: cell-based, Bacillus subtilis; conditions: Bacillus subtilis, ATCC6633, applied 400 µg per disc, dash = lack of the growth inhibition area, read-out: diameter of growth inhibitory zone (GIZ)
[15] = test system: M. luteus ATCC 9341; assay: disc diffusion method; format: cell-based, Micrococcus luteus; conditions: Micrococcus luteus, ATCC9341, applied 400 µg per disc, dash = lack of the growth inhibition area, read-out: diameter of growth inhibitory zone (GIZ)
[16] = molecular target: S. aureus DNA gyrase (Staphylococcus aureus, UniProt P0A0K8+P20831); assay: S. aureus DNA gyrase supercoiling assay; format: biochemical
[17] = test system: BVDV; assay: microbe, parasite or virus in culture; format: cell-based, bovine viral diarrhoea virus; conditions: Bovine viral diarrhea virus isolates and strains, MDBK, in Bos taurus, read-out: BVDV EC50
[18] = test system: CV-B5; assay: microbe, parasite or virus in culture; format: cell-based, coxsackievirus B5; conditions: Enterovirus B, CVB5, Vero 76, read-out: CV-B5 EC50
[19] = test system: Sb-1; assay: microbe, parasite or virus in culture; format: cell-based, poliovirus type-1; conditions: Enterovirus C, Vero 76, read-out: Sb-1 EC50
[20] = test system: Reo-1; assay: microbe, parasite or virus in culture; format: cell-based, reovirus type-1; conditions: Reovirus sp., BHK, read-out: Reo-1 EC50
[21] = test system: RSV; assay: microbe, parasite or virus in culture; format: cell-based, human respiratory syncytial virus; conditions: human respiratory syncytial virus, Vero 76, read-out: RSV EC50
[22] = in vitro; conditions: human
[23] = in vitro; conditions: Syrian hamster (Mesocricetus auratus)
[24] = in vitro; conditions: African green monkey (Cercopithecus aethiops)
[25] = test system: methicillin-resistant strains of S. aureus (MRSA); assay: MIC against hospital strains; conditions: Staphylococcus aureus
[26] = test system: S. epidermidis (MRSE); assay: MIC against hospital strains; conditions: Staphylococcus epidermidis
[27] = test system: HIV-1; assay: microbe, parasite or virus in culture; conditions: Human immunodeficiency virus 1, MT4, read-out: HIV-1 EC50
[28] = hospital S. aureus MRSA strain 389/10
[29] = hospital S. aureus MRSA strain 390/10
[30] = hospital S. aureus MRSA strain 391/10
[31] = hospital S. aureus MRSA strain 392/10
[32] = hospital S. aureus MRSA strain 393/10
[33] = hospital S. aureus MRSA strain 394/10
[34] = hospital S. aureus MRSA strain 399/10
[35] = hospital S. aureus MRSA strain 450/11
[36] = hospital S. aureus MRSA strain 451/11
[37] = hospital S. aureus MRSA strain 452/11
[38] = hospital S. epidermidis MRSE strain 430/11
[39] = hospital S. epidermidis MRSE strain 431/11
[40] = hospital S. epidermidis MRSE strain 432/11
[41] = hospital S. epidermidis MRSE strain 433/11
[42] = hospital S. epidermidis MRSE strain 434/11
[43] = hospital S. epidermidis MRSE strain 435/11
[44] = hospital S. epidermidis MRSE strain 436/11
[45] = hospital S. epidermidis MRSE strain 437/11
[46] = hospital S. epidermidis MRSE strain 438/11
[47] = hospital S. epidermidis MRSE strain 439/11

Chain of S. aureus DNA gyrase (P0A0K8 whole entry): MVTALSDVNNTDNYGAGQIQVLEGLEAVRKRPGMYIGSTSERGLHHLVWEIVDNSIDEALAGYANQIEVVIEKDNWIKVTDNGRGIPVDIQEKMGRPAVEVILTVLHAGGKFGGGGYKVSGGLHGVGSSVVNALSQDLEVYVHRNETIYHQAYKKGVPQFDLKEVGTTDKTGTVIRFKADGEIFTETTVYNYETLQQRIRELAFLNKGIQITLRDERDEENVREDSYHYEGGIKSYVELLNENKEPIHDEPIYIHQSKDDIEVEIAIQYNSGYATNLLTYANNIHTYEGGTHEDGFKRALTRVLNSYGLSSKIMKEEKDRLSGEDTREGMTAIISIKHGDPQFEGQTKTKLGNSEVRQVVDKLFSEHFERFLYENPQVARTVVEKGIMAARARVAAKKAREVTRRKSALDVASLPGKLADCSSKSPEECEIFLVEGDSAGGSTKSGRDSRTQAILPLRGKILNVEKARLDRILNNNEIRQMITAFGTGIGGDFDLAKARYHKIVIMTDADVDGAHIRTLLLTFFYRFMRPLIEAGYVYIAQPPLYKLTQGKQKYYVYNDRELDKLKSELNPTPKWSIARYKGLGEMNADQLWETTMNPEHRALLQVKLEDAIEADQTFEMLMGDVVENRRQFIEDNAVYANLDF
Chain of S. aureus DNA gyrase (P20831 whole entry): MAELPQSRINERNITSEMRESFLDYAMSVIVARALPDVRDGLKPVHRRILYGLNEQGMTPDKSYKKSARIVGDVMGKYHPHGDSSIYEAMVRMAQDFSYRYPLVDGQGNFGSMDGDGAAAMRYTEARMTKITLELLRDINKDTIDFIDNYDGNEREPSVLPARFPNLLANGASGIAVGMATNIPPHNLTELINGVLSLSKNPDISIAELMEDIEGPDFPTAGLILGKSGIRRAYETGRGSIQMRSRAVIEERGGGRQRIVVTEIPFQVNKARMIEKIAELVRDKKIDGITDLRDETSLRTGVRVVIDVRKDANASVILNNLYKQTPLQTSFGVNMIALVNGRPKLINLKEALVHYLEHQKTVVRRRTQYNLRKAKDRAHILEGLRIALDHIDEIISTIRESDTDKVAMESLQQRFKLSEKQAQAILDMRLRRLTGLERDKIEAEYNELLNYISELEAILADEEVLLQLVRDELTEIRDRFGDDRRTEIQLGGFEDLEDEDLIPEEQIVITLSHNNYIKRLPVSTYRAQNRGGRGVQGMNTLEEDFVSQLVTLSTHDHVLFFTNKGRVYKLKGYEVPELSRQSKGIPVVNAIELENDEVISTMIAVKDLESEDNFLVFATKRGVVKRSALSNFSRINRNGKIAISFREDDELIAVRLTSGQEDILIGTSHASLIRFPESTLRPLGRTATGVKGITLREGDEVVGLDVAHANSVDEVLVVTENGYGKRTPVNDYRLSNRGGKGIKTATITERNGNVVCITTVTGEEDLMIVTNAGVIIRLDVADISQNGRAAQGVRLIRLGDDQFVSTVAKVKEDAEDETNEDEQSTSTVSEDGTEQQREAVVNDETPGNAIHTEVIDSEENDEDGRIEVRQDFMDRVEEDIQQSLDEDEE

SMILES: S=C(NCCc1c[nH]c2ccccc12)Nc1cccc(Cl)c1 [Compound 14, 1-(2-(1H-Indol-3-yl)ethyl)-3-(3-chlorophenyl)thiourea]
- MIC [1]: 50 µg/mL (≈ 152 µM)
- MIC [2]: 50 µg/mL (≈ 152 µM)
- MIC [3]: 50 µg/mL (≈ 152 µM)
- MIC [4]: 50 µg/mL (≈ 152 µM)
- MIC [5]: 50 µg/mL (≈ 152 µM)
- MIC [6]: 50 µg/mL (≈ 152 µM)
- MIC [7]: 25 µg/mL (≈ 75.8 µM)
- MIC [8]: 12.5 µg/mL (≈ 37.9 µM)
- zone of inhibition at 400 µg/disc [9]: 13 mm
- zone of inhibition at 400 µg/disc [10]: 14 mm
- zone of inhibition at 400 µg/disc [11]: 13 mm
- zone of inhibition at 400 µg/disc [12]: 15 mm
- zone of inhibition at 400 µg/disc [13]: 12 mm
- zone of inhibition at 400 µg/disc [14]: 12 mm
- zone of inhibition at 400 µg/disc [15]: 12 mm
- effect against DNA gyrase (in words) ([16]; data not shown): not significantly effective
- EC50 [17]: > 32 µM
- EC50 [18]: 9 ± 1.2 µM
- EC50 [19]: > 32 µM
- EC50 [20]: > 6 µM
- EC50 [21]: > 32 µM
- melting point: 169 to 171 °C
- CC50 [22]: 42 µM
- CC50 [23]: 6 µM
- CC50 [24]: 32 µM
- MIC [25, 28]: 25 µg/mL (≈ 75.8 µM)
- MIC [25, 29]: 25 µg/mL (≈ 75.8 µM)
- MIC [25, 30]: 25 µg/mL (≈ 75.8 µM)
- MIC [25, 31]: 25 µg/mL (≈ 75.8 µM)
- MIC [25, 32]: 25 µg/mL (≈ 75.8 µM)
- MIC [25, 33]: 25 µg/mL (≈ 75.8 µM)
- MIC [25, 34]: 25 µg/mL (≈ 75.8 µM)
- MIC [25, 35]: 25 µg/mL (≈ 75.8 µM)
- MIC [25, 36]: 25 µg/mL (≈ 75.8 µM)
- MIC [25, 37]: 25 µg/mL (≈ 75.8 µM)
- MIC [26, 38]: 25 µg/mL (≈ 75.8 µM)
- MIC [26, 39]: 6.25 µg/mL (≈ 18.9 µM)
- MIC [26, 40]: 25 µg/mL (≈ 75.8 µM)
- MIC [26, 41]: 25 µg/mL (≈ 75.8 µM)
- MIC [26, 42]: 25 µg/mL (≈ 75.8 µM)
- MIC [26, 43]: 25 µg/mL (≈ 75.8 µM)
- MIC [26, 44]: 50 µg/mL (≈ 152 µM)
- MIC [26, 45]: 25 µg/mL (≈ 75.8 µM)
- MIC [26, 46]: 50 µg/mL (≈ 152 µM)
- MIC [26, 47]: 25 µg/mL (≈ 75.8 µM)
- EC50 [27]: > 42 µM

SMILES: S=C(NCCc1c[nH]c2ccccc12)Nc1ccc(Cl)c(Cl)c1 [Compound 6, 1-(2-(1H-indol-3-yl)ethyl)-3-(3,4-dichlorophenyl)thiourea]
- MIC [1]: 6.25 µg/mL (≈ 17.2 µM)
- MIC [2]: 6.25 µg/mL (≈ 17.2 µM)
- MIC [3]: 12.5 µg/mL (≈ 34.3 µM)
- MIC [4]: 6.25 µg/mL (≈ 17.2 µM)
- MIC [5]: 12.5 µg/mL (≈ 34.3 µM)
- MIC [6]: 12.5 µg/mL (≈ 34.3 µM)
- MIC [7]: 6.25 µg/mL (≈ 17.2 µM)
- MIC [8]: 6.25 µg/mL (≈ 17.2 µM)
- zone of inhibition at 400 µg/disc [9]: 10 mm
- zone of inhibition at 400 µg/disc [10]: 15 mm
- zone of inhibition at 400 µg/disc [11]: 16 mm
- zone of inhibition at 400 µg/disc [12]: 15 mm
- zone of inhibition at 400 µg/disc [13]: 16 mm
- zone of inhibition at 400 µg/disc [14]: 15 mm
- zone of inhibition at 400 µg/disc [15]: 15 mm
- IC50 ([16]; supercoiling of relaxed pBR322 DNA, 30 min, 37 °C, read-out: IC50 ± SEM, S. aureus DNA Gyrase (converted)): 199 µM
- EC50 [17]: > 27 µM
- EC50 [18]: > 13 µM
- EC50 [19]: > 13 µM
- EC50 [20]: > 10 µM
- EC50 [21]: > 13 µM
- melting point: 168 to 169 °C
- CC50 [22]: 45 µM
- CC50 [23]: 10 µM
- CC50 [24]: 13 µM
- MIC [25, 28]: 6.25 µg/mL (≈ 17.2 µM)
- MIC [25, 29]: 6.25 µg/mL (≈ 17.2 µM)
- MIC [25, 30]: 6.25 µg/mL (≈ 17.2 µM)
- MIC [25, 31]: 6.25 µg/mL (≈ 17.2 µM)
- MIC [25, 32]: 6.25 µg/mL (≈ 17.2 µM)
- MIC [25, 33]: 6.25 µg/mL (≈ 17.2 µM)
- MIC [25, 34]: 6.25 µg/mL (≈ 17.2 µM)
- MIC [25, 35]: 6.25 µg/mL (≈ 17.2 µM)
- MIC [25, 36]: 6.25 µg/mL (≈ 17.2 µM)
- MIC [25, 37]: 6.25 µg/mL (≈ 17.2 µM)
- MIC [26, 38]: 6.25 µg/mL (≈ 17.2 µM)
- MIC [26, 39]: 6.25 µg/mL (≈ 17.2 µM)
- MIC [26, 40]: 6.25 µg/mL (≈ 17.2 µM)
- MIC [26, 41]: 6.25 µg/mL (≈ 17.2 µM)
- MIC [26, 42]: 12.5 µg/mL (≈ 34.3 µM)
- MIC [26, 43]: 6.25 µg/mL (≈ 17.2 µM)
- MIC [26, 44]: 6.25 µg/mL (≈ 17.2 µM)
- MIC [26, 45]: 6.25 µg/mL (≈ 17.2 µM)
- MIC [26, 46]: 6.25 µg/mL (≈ 17.2 µM)
- MIC [26, 47]: 6.25 µg/mL (≈ 17.2 µM)
- EC50 [27]: > 45 µM
